Reference: ChEMBL document CHEMBL3102722, “Diarylacylhydrazones: Clostridium-selective antibacterials with activity against stationary-phase cells” (Bioorg Med Chem Lett, 2014)
Values after ≈ are worked out from the molar mass of the structure shown. Active and inactive are the calls of the source. No cut-off for these calls is given here.

Tests used:
Escherichia coli = assay: Antibacterial activity against Escherichia coli ATCC 700927 assessed as growth inhibition after 20 to 24 hrs; type: functional
Clostridioides difficile [1] = assay: Antibacterial activity against Clostridium difficile clinical isolate assessed as growth inhibition; type: functional
Lacticaseibacillus casei = assay: Antibacterial activity against Lactobacillus casei ATCC 334 assessed as growth inhibition after 20 to 24 hrs; type: functional
Clostridioides difficile [2] = assay: Antibacterial activity against stationary phase of Clostridium difficile CD196 assessed as cell killing at 1 to 20 X MIC after 3 to 6 hrs; type: functional
Clostridioides difficile [3] = assay: Antibacterial activity against Clostridium difficile CD196 assessed as growth inhibition after 20 to 24 hrs; type: functional
[4] = test system: Limosilactobacillus reuteri; assay: Antibacterial activity against Lactobacillus reuteri ATCC 23272 assessed as growth inhibition after 20 to 24 hrs; type: functional
Enterococcus faecalis = assay: Antibacterial activity against Enterococcus faecalis ATCC 47077 assessed as growth inhibition after 20 to 24 hrs; type: functional
Streptococcus mutans = assay: Antibacterial activity against Streptococcus mutans ATCC 700610 assessed as growth inhibition after 20 to 24 hrs; type: functional
[5] = test system: Bacteroides thetaiotaomicron; assay: Antibacterial activity against Bacteroides thetaiotaomicron ATCC 29148 assessed as growth inhibition after 20 to 24 hrs; type: functional
Staphylococcus aureus = assay: Antibacterial activity against Staphylococcus aureus 8325-4 assessed as growth inhibition after 20 to 24 hrs; type: functional
Bifidobacterium longum = assay: Antibacterial activity against Bifidobacterium longum ATCC BAA-999 assessed as growth inhibition after 20 to 24 hrs; type: functional
Clostridium perfringens = assay: Antibacterial activity against Clostridium perfringens ATCC 13124 assessed as growth inhibition after 20 to 24 hrs; type: functional
Bacteroides fragilis = assay: Antibacterial activity against Bacteroides fragilis ATCC 25285 assessed as growth inhibition after 20 to 24 hrs; type: functional; conditions: NCTC 9343
FaDu = assay: Cytotoxicity against human FADU cells assessed as concentration required to decrease cell viability incubated for 24 hrs followed by compound washout measured after 18 hrs by resazurin dye-based assay
Clostridioides difficile [6] = assay: Bactericidal activity against Clostridium difficile CD196 after 20 to 24 hrs; type: functional; conditions: read-out: MBC99.9
[7] = Cytotoxicity against human HepG2 cells assessed as concentration required to decrease cell viability incubated for 24 hrs followed by compound washout measured after 18 hrs by resazurin dye-based assay; conditions: read-out: Activity
Clostridioides difficile [8] = assay: Antibacterial activity against stationary phase of Clostridium difficile CD196 assessed as cell killing after 3 to 6 hrs; type: functional
Clostridioides difficile [9] = assay: Antibacterial activity against Clostridium difficile 10463 clinical isolate assessed as growth inhibition after 20 to 24 hrs; type: functional
Clostridioides difficile [10] = assay: Antibacterial activity against Clostridium difficile UK1 clinical isolate assessed as growth inhibition after 20 to 24 hrs; type: functional
Clostridioides difficile [11] = assay: Antibacterial activity against Clostridium difficile VPI clinical isolate assessed as growth inhibition after 20 to 24 hrs; type: functional
Clostridioides difficile [12] = assay: Antibacterial activity against Clostridium difficile GC1 clinical isolate assessed as growth inhibition after 20 to 24 hrs; type: functional
[13] = Antibacterial activity against Clostridium difficile 630 clinical isolate assessed as growth inhibition after 20 to 24 hrs; type: functional, Clostridioides difficile 630; conditions: Clostridioides difficile
Clostridioides difficile [14] = assay: Ratio of MBC99.9 to MIC for Clostridium difficile CD196; type: functional
Clostridioides difficile [15] = assay: Antibacterial activity against Clostridium difficile UK6 clinical isolate assessed as growth inhibition after 20 to 24 hrs; type: functional

| SMILES | MIC (Escherichia coli) | MIC (Lacticaseibacillus casei) | Activity (Clostridioides difficile [2]) | MIC (Clostridioides difficile [3]) | MIC [4] | MIC (Enterococcus faecalis) | MIC (Streptococcus mutans) | MIC [5] | MIC (Staphylococcus aureus) | MIC (Bifidobacterium longum) | MIC (Clostridium perfringens) | MIC (Bacteroides fragilis) | Activity (FaDu) | MBC (Clostridioides difficile [6]) | MCC at 24 h [7] | MIC (Clostridioides difficile [9]) | MIC (Clostridioides difficile [10]) | MIC (Clostridioides difficile [11]) | MIC (Clostridioides difficile [12]) | MIC [13] | further results |
| --- | --- | --- | --- | --- | --- | --- | --- | --- | --- | --- | --- | --- | --- | --- | --- | --- | --- | --- | --- | --- | --- |
| CCc1c(Cl)c(O)c(Cl)c(O)c1C(=O)O[C@H]1[C@H](O)[C@H](OC)[C@H](OC/C2=C\C=C\C[C@H](O)/C(C)=C/[C@H](CC)[C@@H](O[C@@H]3OC(C)(C)[C@@H](OC(=O)C(C)C)[C@H](O)[C@@H]3O)/C(C)=C/C(C)=C/C[C@@H]([C@@H](C)O)OC2=O)O[C@@H]1C [FIDAXOMICIN] | > 50 µg/mL | > 50 µg/mL | inactive | 0.18 µg/mL (≈ 0.17 µM) | > 50 µg/mL | 12.5 µg/mL (≈ 11.8 µM) | 3.13 µg/mL (≈ 2.96 µM) | > 50 µg/mL | 3.13 µg/mL (≈ 2.96 µM) | ≤ 0.78 µg/mL | ≤ 0.0075 µg/mL | > 50 µg/mL |  |  |  |  |  |  |  |  | MIC90 (Clostridioides difficile [1]): 0.008 µg/mL (≈ 0.00756 µM) |
| Cc1ccc(C(=O)N/N=C/c2c(O)ccc3ccccc23)cc1 | > 50 µg/mL | > 50 µg/mL | Active | 6.25 µg/mL (≈ 20.5 µM) | > 50 µg/mL | > 50 µg/mL | > 50 µg/mL | 25 µg/mL (≈ 82.1 µM) | > 50 µg/mL | > 50 µg/mL | 1.56 µg/mL (≈ 5.13 µM) | 12.5 µg/mL (≈ 41.1 µM) | > 100 µg/mL | 6.25 µg/mL (≈ 20.5 µM) | > 100 µg/mL |  |  |  |  |  |  |
| Cc1cc(C(=O)N/N=C/c2c(O)ccc3ccccc23)[nH]n1 | > 50 µg/mL | > 50 µg/mL |  | 3.13 µg/mL (≈ 10.6 µM) | > 50 µg/mL | > 50 µg/mL | > 50 µg/mL | 25 µg/mL (≈ 84.9 µM) | > 50 µg/mL | > 50 µg/mL | ≤ 3.13 µg/mL | > 50 µg/mL | > 100 µg/mL | 3.13 µg/mL (≈ 10.6 µM) | > 100 µg/mL |  |  |  |  |  | Activity (Clostridioides difficile [8]): Dose-dependent effect |
| O=C(N/N=C/c1c(O)ccc2ccccc12)c1ccc(-c2ccccc2)cc1 | > 50 µg/mL | > 50 µg/mL |  | 1.56 µg/mL (≈ 4.26 µM) | > 50 µg/mL | > 50 µg/mL | > 50 µg/mL | > 50 µg/mL | > 50 µg/mL | > 50 µg/mL | 3.13 µg/mL (≈ 8.54 µM) | > 50 µg/mL |  | 3.13 µg/mL (≈ 8.54 µM) |  | 3 µg/mL (≈ 8.19 µM) | 1.5 µg/mL (≈ 4.09 µM) | 3 µg/mL (≈ 8.19 µM) | 1.5 µg/mL (≈ 4.09 µM) | 1.5 µg/mL (≈ 4.09 µM) | Ratio (Clostridioides difficile [14]): 2; MIC (Clostridioides difficile [15]): 1.5 µg/mL (≈ 4.09 µM) |
| CN[C@H](CC(C)C)C(=O)N[C@H]1C(=O)N[C@@H](CC(N)=O)C(=O)N[C@H]2C(=O)N[C@H]3C(=O)N[C@H](C(=O)N[C@H](C(=O)O)c4cc(O)cc(O)c4-c4cc3ccc4O)[C@H](O)c3ccc(c(Cl)c3)Oc3cc2cc(c3O[C@@H]2O[C@H](CO)[C@@H](O)[C@H](O)[C@H]2O[C@H]2C[C@](C)(N)[C@H](O)[C@H](C)O2)Oc2ccc(cc2Cl)[C@H]1O [VANCOMYCIN] | > 50 µg/mL | > 50 µg/mL | inactive | 1 µg/mL (≈ 0.69 µM) | > 50 µg/mL | 3.13 µg/mL (≈ 2.16 µM) | 1.56 µg/mL (≈ 1.08 µM) | 12.5 µg/mL (≈ 8.63 µM) | 3.13 µg/mL (≈ 2.16 µM) | ≤ 0.78 µg/mL | ≤ 0.78 µg/mL | 12.5 µg/mL (≈ 8.63 µM) | > 200 µg/mL |  | > 200 µg/mL | 1.5 µg/mL (≈ 1.04 µM) | 1.5 µg/mL (≈ 1.04 µM) | 1.5 µg/mL (≈ 1.04 µM) | 1.5 µg/mL (≈ 1.04 µM) | 0.75 µg/mL (≈ 0.518 µM) | MIC (Clostridioides difficile [15]): 0.75 µg/mL (≈ 0.518 µM) |
